Data: patent publication US8273767B2, “Bicyclic-substituted amines as histamine-3 receptor ligands” (Abbott Laboratories, priority 2002, dated 2012)
Where a name gives a salt, the structure may show the parent alone.

| SMILES | melting point |
| --- | --- |
| C[C@@H]1CCCN1CCc1ccc2cc(Br)ccc2c1 (as salt: HCl) [Example 2, (2R)-1-[2-(6-bromo-2-naphthyl)ethyl]-2-methylpyrrolidine] | 247.3 to 250.7 °C |
| C[C@@H]1CCCN1CCc1ccc2cc(C#N)ccc2c1 (as salt: hydrochloride) [Example 5, 6-{2-[(2R)-2-methyl-1-pyrrolidinyl]ethyl}-2-naphthonitrile] | 187.4 to 188.6 °C |
| C[C@@H]1CCCN1Cc1ccc2cc(-c3ccc(C#N)cc3)ccc2c1 (as salt: hydrochloride) [Example 6, 4-(6-{[(2R)-2-methyl-1-pyrrolidinyl]methyl}-2-naphthyl)benzonitrile] | 212.6 to 213.6 °C |
| C[C@@H]1CCCN1CCc1ccc2cc(-c3ccc(F)cc3)ccc2n1 (as salt: hydrochloride) [Example 43, 6-(4-fluorophenyl)-2-{2-[(2R)-2-methyl-1-pyrrolidinyl]ethyl}quinoline] | 145 °C |
| CC(=O)c1cccc(-c2ccc3nc(CCN4CCC[C@H]4C)ccc3c2)c1 (as salt: hydrochloride) [Example 45, 1-[3-(2-{2-[(2R)-2-methyl-1-pyrrolidinyl]ethyl}-6-quinolinyl)phenyl]ethanone] | 174 to 175 °C |
| COc1ccc(-c2ccc3nc(CCN4CCC[C@H]4C)ccc3c2)cc1 (as salt: hydrochloride) [Example 46, 6-(4-methoxyphenyl)-2-{2-[(2R)-2-methyl-1-pyrrolidinyl]ethyl}quinoline] | 165 °C (dec.) |
| C[C@@H]1CCCN1CCc1ccc2cc(-c3ccc(C(F)(F)F)cc3)ccc2n1 (as salt: hydrochloride) [Example 47, 2-{2-[(2R)-2-methyl-1-pyrrolidinyl]ethyl}-6-[4-(trifluoromethyl)phenyl]quinoline] | 143 to 145 °C (dec.) |
| C[C@@H]1CCCN1CCc1ccc2cc(-c3cc(F)cc(F)c3)ccc2n1 (as salt: hydrochloride) [Example 49, 6-(3,5-difluorophenyl)-2-{2-[(2R)-2-methyl-1-pyrrolidinyl]ethyl}quinoline] | 164 to 165 °C |
| C[C@@H]1CCCN1CCc1ccc2cc(C(=O)c3cccc(F)c3)ccc2n1 (as salt: hydrochloride) [Example 50, (3-fluorophenyl)(2-{2-[(2R)-2-methyl-1-pyrrolidinyl]ethyl}-6-quinolinyl)methanone] | 162 to 164 °C (dec.) |
| C[C@@H]1CCCN1CCc1ccc2cc(-c3cccnc3)ccc2n1 (as salt: hydrochloride) [Example 51, 2-{2-[(2R)-2-methyl-1-pyrrolidinyl]ethyl}-6-(3-pyridinyl)quinoline] | 205 to 207 °C |
| C[C@@H]1CCCN1CCc1ccc2cc(-c3ccncc3)ccc2n1 (as salt: hydrochloride) [Example 107, 2-[2-(2R-Methyl-pyrrolidin-1-yl)-ethyl]-6-pyridin-4-yl-quinoline] | 145 to 147 °C |
| C[C@@H]1CCCN1CCc1ccc2cc(-c3ccc(Cl)nc3Cl)ccc2n1 (as salt: hydrochloride) [Example 111, 6-(2,6-Dichloro-pyridin-3-yl)-2-[2-(2(R)-methyl-pyrrolidin-1-yl)-ethyl]-quinoline] | 105 to 107 °C |
| C[C@@H]1CCCN1CCc1ccc2cc(-c3cncnc3)ccc2n1 (as salt: hydrochloride) [Example 113, 2-[2-(2(R)-Methyl-pyrrolidin-1-yl)-ethyl]-6-pyrimidin-5-yl-quinoline] | 160 to 162 °C |
| C[C@@H]1CCCN1CCc1ccc2cc(-c3ccc(Cl)cc3)ccc2n1 (as salt: hydrochloride) [Example 117, 6-(4-Chloro-phenyl)-2-[2-(2(R)-methyl-pyrrolidin-1-yl)-ethyl]-quinoline] | 154 to 155 °C |
| Cc1ccc(-c2ccc3nc(CCN4CCC[C@H]4C)ccc3c2)c(C)n1 (as salt: hydrochloride) [Example 118, 6-(2,6-Dimethyl-pyridin-3-yl)-2-[2-(2(R)-methyl-pyrrolidin-1-yl)-ethyl]-quinoline] | 176 to 177 °C |
| Cc1noc(C)c1-c1ccc2nc(CCN3CCC[C@H]3C)ccc2c1 (as salt: hydrochloride) [Example 120, 6-(3,5-Dimethyl-isoxazol-4-yl)-2-[2-(2(R)-methyl-pyrrolidin-1-yl)-ethyl]-quinoline] | 174 to 175 °C |
| COC(=O)c1ccc(-c2ccc3nc(CCN4CCC[C@H]4C)ccc3c2)cc1 (as salt: hydrochloride) [Example 121, 4-{2-[2-(2(R)-Methyl-pyrrolidin-1-yl)-ethyl]-quinolin-6-yl}-benzoic acid methyl ester] | 172 to 174 °C |
| CSc1ccc(-c2ccc3nc(CCN4CCC[C@H]4C)ccc3c2)cc1 (as salt: hydrochloride) [Example 122, 2-[2-(2(R)-Methyl-pyrrolidin-1-yl)-ethyl]-6-(4-methylsulfanyl-phenyl)-quinoline] | 158 to 159 °C |
| C[C@@H]1CCCN1CCc1ccc2cc(-c3ccc(F)nc3)ccc2n1 (as salt: hydrochloride) [Example 123, 6-(6-Fluoro-pyridin-3-yl)-2-[2-(2(R)-methyl-pyrrolidin-1-yl)-ethyl]-quinoline] | 162 to 163 °C |
| C[C@@H]1CCCN1CCc1ccc2cc(-c3ccc(C#N)cc3)ccc2c1 (as salt: tartrate) [Example 1, 4-(6-{2-[(2R)-2-methyl-1-pyrrolidinyl]ethyl}-2-naphthyl)benzonitrile] | 157.4 to 158.1 °C |
| C[C@@H]1CCCN1CCc1ccc2cc(-c3ccc(C#N)cc3)ccc2n1 (as salt: tartrate) [Example 42, 4-(2-{2-[(2R)-2-methyl-1-pyrrolidinyl]ethyl}-6-quinolinyl)benzonitrile] | 164 °C |
| C[C@@H]1CCCN1CCc1ccc2cc(-c3cccc(C#N)c3)ccc2n1 (as salt: tartrate) [Example 44, 3-(2-{2-[(2R)-2-methyl-1-pyrrolidinyl]ethyl}-6-quinolinyl)benzonitrile] | 172 °C |
| COc1ccc(-c2ccc3nc(CCN4CCC[C@H]4C)ccc3c2)cn1 (as salt: tartrate) [Example 108, 6-(6-Methoxy-pyridin-3-yl)-2-[2(R)-(2-methyl-pyrrolidin-1-yl)-ethyl]-quinoline] | 132 to 134 °C |
| C[C@@H]1CCCN1CCc1ccc2cc(-c3ccc(F)nc3F)ccc2n1 (as salt: tartrate) [Example 109, 6-(2,6-Difluoro-pyridin-3-yl)-2-[2-(2R-methyl-pyrrolidin-1-yl)-ethyl]-quinoline] | 142 to 143 °C |
| C[C@@H]1CCCN1CCc1ccc2cc(-c3ccc(Cl)nc3)ccc2n1 (as salt: tartrate) [Example 110, 6-(6-Chloro-pyridin-3-yl)-2-[2-(2(R)-methyl-pyrrolidin-1-yl)-ethyl]-quinoline] | 167 to 168 °C |
| C[C@@H]1CCCN1CCc1ccc2cc(-c3ccc(N(C)C)cc3)ccc2n1 (as salt: tartrate) [Example 115, Dimethyl-(4-{2-[2-(2(R)-methyl-pyrrolidin-1-yl)-ethyl]-quinolin-6-yl}-phenyl)-amine] | 155 to 156 °C |
| CC(=O)c1ccc(-c2ccc3nc(CCN4CCC[C@H]4C)ccc3c2)cc1 (as salt: tartrate) [Example 116, 1-(4-{2-[2-(2(R)-Methyl-pyrrolidin-1-yl)-ethyl]-quinolin-6-yl}-phenyl)-ethanone] | 152 to 154 °C |
| C[C@@H]1CCCN1CCc1ccc2cc(-c3cncc(C#N)c3)ccc2n1 (as salt: tartrate) [Example 124, 5-{2-[2-(2(R)-Methyl-pyrrolidin-1-yl)-ethyl]-quinolin-6-yl}-nicotinonitrile] | 100 to 102 °C |
| C[C@@H]1CCCN1CCc1ccc2cc(-c3cccc(C#N)c3)ccc2c1 [Example 7, 3-(6-{2-[(2R)-2-methyl-1-pyrrolidinyl]ethyl}-2-naphthyl)benzonitrile] | 228.5 to 231.6 °C |
